From patent publication US6506876B1, “LTA4 hydrolase inhibitor pharmaceutical compositions and methods of use” (G.D. Searle & Co., priority 1994, dated 2003)
Counter-ions that a name gives are not always drawn.

biological target: T1, recombinant human LTA4 hydrolase (rhLTA4H) (Homo sapiens, UniProt P09960); test: Recombinant human LTA4 hydrolase assay for LTA4 hydrolase inhibitor activity; conditions: Recombinant Human LTA4 Hydrolase Assay IC50 LTA4H, recombinant hLTA4H
T1 sequence (P09960 1-611): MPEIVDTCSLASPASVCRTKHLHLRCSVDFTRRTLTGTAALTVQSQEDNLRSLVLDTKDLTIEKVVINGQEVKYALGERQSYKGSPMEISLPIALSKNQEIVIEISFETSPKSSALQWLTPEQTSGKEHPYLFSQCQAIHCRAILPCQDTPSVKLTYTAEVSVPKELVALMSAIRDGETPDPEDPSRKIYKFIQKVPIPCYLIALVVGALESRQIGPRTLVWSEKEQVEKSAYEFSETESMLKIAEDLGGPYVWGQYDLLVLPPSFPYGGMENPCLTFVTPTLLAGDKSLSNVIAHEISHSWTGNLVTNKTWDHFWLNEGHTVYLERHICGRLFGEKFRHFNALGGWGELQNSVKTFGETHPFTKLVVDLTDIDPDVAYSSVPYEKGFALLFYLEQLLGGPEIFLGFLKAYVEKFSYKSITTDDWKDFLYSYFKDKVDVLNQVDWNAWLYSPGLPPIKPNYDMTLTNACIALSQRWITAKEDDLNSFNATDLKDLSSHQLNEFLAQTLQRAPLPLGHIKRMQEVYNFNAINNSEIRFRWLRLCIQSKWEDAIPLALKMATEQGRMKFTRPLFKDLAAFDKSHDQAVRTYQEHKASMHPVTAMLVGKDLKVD

In order of falling IC50:
1. c1ccc(Cc2ccc3c(c2)CC(Cn2cnc4cccnc42)O3)cc1 (stereo not drawn) [359 A]  100000 nM
2. CS(=O)(=O)N1CCN(CCOc2ccc(Cc3ccccc3)cc2)CC1 [Example 460]  84000 nM
3. NC(=O)C1CCN(CCOc2ccc(Cc3ccccc3)s2)CC1 [Example 369]  42000 nM
4. CN(CCCOc1ccc(Cc2ccccc2)cc1)CC(C)(C)C(=O)OCc1ccccc1 [Example 418]  12000 nM
5. c1ccc(Oc2ccc(NCCN3CCCC3)cc2)cc1 [Example 71, N-(4-phenoxyphenyl)-1-pyrrolidine ethanamine, monohydrochloride]  6500 nM
6. CCOC(=O)C1CCN(CCOc2ccc(Oc3ccccc3)cc2)CC1 [Example 254]  6000 nM
7. c1ccc(Cc2ccc(OCCCn3cnc4cccnc43)cc2)cc1 [341 A]  5700 nM
8. c1ccc(Cc2ccc3c(c2)CC(Cn2nnc4ncccc42)O3)cc1 (stereo not drawn) [360 C]  5000 nM
9. c1ccc2nc(Cc3ccc(OCCN4CCCC4)cc3)ccc2c1 [Example 131]  4300 nM
10. c1ccc(Cc2ccc3c(c2)CC(Cn2cccc4ncnc2-4)O3)cc1 (stereo not drawn) [359 C]  3500 nM
11. CCOC(=O)CC1CCN(CCCOc2ccc(Cc3ccccc3)cc2)CC1 [Example 302]  3000 nM
12. c1ccc2c(COc3ccc(OCCN4CCCC4)cc3)cccc2c1 [Example 214]  2800 nM
13. CCOC(=O)[C@@H]1CCN(CCOc2ccc(Cc3ccccc3)cc2)[C@H](C)C1 (relative stereo) [Example 298]  2500 nM
14. c1ccc(COc2ccc(OCCn3cccc4ncnc3-4)cc2)cc1 [346 C]  2200 nM
15. COc1ccc(Cc2ccc(OCCN3CCC(C(N)=O)CC3)cc2)cc1 [Example 232]  2100 nM
16. COc1ccc(Cc2ccc(OCCN3CCC(C(N)=O)CC3)cc2)cc1F [Example 314]  1500 nM
17. O=C(CCNCCCOc1ccc(Cc2ccccc2)cc1)OCc1ccccc1 [Example 261]  1250 nM
18. c1ccc(Oc2ccc(OCCCn3cnc4ccncc43)cc2)cc1 [351 A]  1080 nM
19. c1ccc(Cc2ccc(OCCn3ccc4ncccc43)cc2)cc1 [Example 342]  970 nM
20. NC(=O)C1CCCN(CCOc2ccc(Oc3ccccc3)cc2)C1 (stereo not drawn) [Example 253]  910 nM
21. Fc1ccc(COc2ccc(OCCN3CCCC3)cc2)cc1 [Example 205]  900 nM
22. O=C(O)C1CCN(CCOc2ccc(Cc3ccccc3)s2)CC1 [Example 371]  860 nM
23. CCOC(=O)CCNCCCCCOc1ccc(Cc2ccccc2)cc1 [Example 274]  800 nM
24. CC(CN1CCCCC1)Oc1ccc(Cc2ccccc2)cc1 (stereo not drawn) [Example 403]  750 nM
25. NC(=O)C1CCN(CC2Cc3cc(Cc4ccccc4)cnc3O2)CC1 (stereo not drawn) [Example 288]  700 nM
26. c1ccc(Cc2ccc(OCCNC3CCCC3)cc2)cc1 [Example 241]  600 nM
27. c1ccc(Oc2ccc(OCCn3cnc4ccncc43)cc2)cc1 [349 A]  480 nM
28. COC(=O)CC1CC2CC1N(CCOc1ccc(Cc3ccccc3)cc1)C2 (stereo not drawn) [Example 307]  440 nM
29. c1ccc(Cc2cnc3c(c2)CC(CN2CCCC2)O3)cc1 (stereo not drawn) [Example 287]  330 nM
30. c1ccc2ncc(COc3ccc(OCCN4CCCC4)cc3)cc2c1 [Example 201]  330 nM
31. c1ccc(Oc2ccc(OCCn3cccc4ncnc3-4)cc2)cc1 [348 C]  290 nM
32. CNC(=O)C1CCN(CCOc2ccc(Oc3ccccc3)cc2)CC1 [Example 255]  280 nM
33. O=C(O)C1CCN(CCOc2ccc(Cc3ccccc3)cc2)CC1 [Example 429]  250 nM
34. NC(=O)C1CCN(CCOc2ccc(Oc3ccccc3)cc2)CC1 [Example 252]  160 nM
35. N=C(N)C1CCN(CCOc2ccc(Cc3ccccc3)cc2)CC1 [Example 449]  140 nM
36. C[C@@H]1C[C@H](C(N)=O)CCN1CCOc1ccc(Cc2ccccc2)cc1 (relative stereo) [Example 297]  120 nM
37. Fc1cccc(COc2ccc(OCCN3CCCC3)cc2)c1 [Example 211]  120 nM
38. Clc1cccc(Cc2ccc(OCCN3CCCC3)cc2)c1 [Example 143]  56 nM
39. [O-][n+]1ccc2ncn(CCOc3ccc(Cc4ccccc4)cc3)c2c1 [Example 364]  36 nM
40. OC1CCN(CCOc2ccc(Cc3ccccc3)cc2)C1 (stereo not drawn) [Example 386]  32 nM
41. COC(=O)C1CC2CC1CN2CCOc1ccc(Cc2ccccc2)cc1 (stereo not drawn) [Example 440]  30 nM
42. c1ccc(Cc2ccc(OCCn3ccc4ncnc-4c3)cc2)cc1 [340 A]  11 nM
43. COC(=O)C1(O)CCN(CCOc2ccc(Cc3ccccc3)cc2)CC1 [Example 305]  10 nM

same assay, conditions: at 25 μM

`Clc1cccc(Cl)c1COc1ccc(OCCN2CCCC2)cc1` [Example 204] was tested, and the “Recombinant Human LTA4 Hydrolase Assay, % at 25 μM” value was 49% at 25.

same assay, conditions: read-out: Recombinant Human LTA4 Hydrolase Assay, % at 3 μM

In order of falling inhibition at 3 µM:
1. CC(C)(C)OC(=O)CCNCCCOc1ccc(Cc2ccccc2)cc1 [Example 268]  53%
2. c1ccc(Oc2ccc(OCCCn3cnc4ccccc43)cc2)cc1 [Example 343]  40%
3. c1ccc(COc2ccc(OCCn3cnc4ccccc43)cc2)cc1 [Example 345]  35%
4. c1ccc(COc2ccc(OCCn3cnc4cccnc43)cc2)cc1 [346 A]  31%
5. O=C(OCc1ccccc1)[C@@H]1CCCN1CCCOc1ccc(Cc2ccccc2)cc1 [Example 228]  28%

same assay, conditions: read-out: Recombinant Human LTA4 Hydrolase Assay, % at 100 μM

`C#CC(CC(=O)OCC)NCCOc1ccc(Cc2ccccc2)cc1` (stereo not drawn) [Example 408] gave an inhibition at 100 µM of 76%.

system: LTB4 production in mouse blood (LTA4 hydrolase); test: Ex vivo LTB4 production by calcium ionophore stimulated mouse blood after oral dosing; assay type: in vivo; conditions: Mus musculus, po, 1 h, read-out: Murine Ex Vivo LTB4 Inhibition % I LTB4
Experimental: Ex Vivo LTB4 and Thromboxane Production by Calcium Ionophore Stimulated Mouse Blood for LTA4 Hydrolase Inhibitor Activity
Leukotriene A4 hydrolase inhibitor compounds of the present invention were diluted to a predetermined concentration in phosphate buffered saline containing 2% DMSO and 1% Tween 80. The compounds were administered by oral gavage to adult male outbred mice weighing approximately 20-30 gm at a dose of 10 mg/kg body weight. (Compounds given at a dose of 50 mg/kg body weight are designtated in following Table by the symbol, *.) Sixty (60) minutes after administration of an LTA4 inhibitor compound of the invention, blood was collected (into heparin-containing tubes) from the retroorbital sinus. […] The mixture was incubated for 10 minutes at 37° C. in a humidified incubator. The reaction was terminated by centrifugation (833 g, 10 minutes at 4° C.). Supernatants were analyzed for LTB4 and thromboxane by commercially available enzyme-linked immunoassays (Caymen Chemical Co., Ann Arbor, Mich.] in accordance with the manufacturer's instructions. The percent inhibition was determined by comparison to animals treated identically except that the solution admininstered by oral gavage was devoid of inhibitor compound.

In order of falling inhibition in vivo at 10 mg/kg:
1. c1ccc(Cc2ccc(OCCN3CCC(c4nnn[nH]4)CC3)cc2)cc1 [Example 450]  91%
2. COC(=O)CC1CC2CC1CN2CCOc1ccc(Cc2ccccc2)cc1 (stereo not drawn) [Example 304]  80%
3. c1cc(Cc2ccc(OCCN3CCCC3)cc2)cs1 [Example 134]  63%
4. CC1CCCC(C)N1CCOc1ccc(Cc2ccccc2)cc1 (stereo not drawn) [Example 402]  58%
5. c1ncc(Cc2ccc(OCCN3CCCC3)cc2)s1 [Example 122]  57%
6. OC1CCN(CCOc2ccc(Cc3ccccc3)cc2)C1 (stereo not drawn) [Example 386]  51%
7. c1csc(Cc2ccc(OCCN3CCCC3)cc2)n1 [Example 121]  48%
8. c1cncc(Cc2ccc(OCCN3CCCC3)cc2)c1 [Example 125]  46%
9. c1nc(Cc2ccc(OCCN3CCCC3)cc2)cs1 [Example 49, 4-[[4-[2-(1-pyrrolidinyl)ethoxy]phenyl]methyl]thiazole]  46%
10. c1ccc(Oc2ccc(OCCN3CCCC3)cc2)cc1 [Example 44]  25%
11. c1ccc(Cc2ccc(OCCN3CCCCC3)cc2)cc1 [Example 401]  23%

For `c1ccc(Cc2ccc(OCCN3CCCC3)nc2)cc1` [Example 112], the inhibition in vivo at 50 mg/kg was 82%.

same assay, conditions: Mus musculus, po, 1 h; read-out: Murine Ex Vivo LTB4 Inhibition % I LTB4

In order of rising inhibition in vivo at 10 mg/kg:
1. O=C(O)C1CCN(CCOc2ccc(Cc3ccccc3)cc2)CC1 [Example 429]  80%
2. CNC(=O)C1CCN(CCOc2ccc(Cc3ccccc3)cc2)CC1 [Example 420]  93%
3. CN(CCCOc1ccc(Cc2ccc(F)cc2)cc1)CCC(=O)O [Example 336]  99%

same assay, conditions: mouse, oral gavage, 1 hour after administration of 10 mg/kg

For `FC(F)(c1ccccc1)c1ccc(OCCN2CCCC2)cc1` [Example 67, 1-[2-[4-[(difluoro)phenylmethyl]phenoxy]ethyl]pyrrolidine], the “Murine Ex Vivo LTB4 Inhibition % I LTB4” value was 0%.

same assay, conditions: mouse, oral gavage, 1 hour after administration of 10 mg/kg; read-out: Murine Ex Vivo LTB4 Inhibition % I LTB4

In order of rising inhibition in vivo at 10 mg/kg:
1. NC(=O)C1CCN(CC2Cc3cc(Cc4ccccc4)cnc3O2)CC1 (stereo not drawn) [Example 288]  0%
2. c1ccc(Cc2ccc(OCCNC3CCCC3)cc2)cc1 [Example 241]  33%
3. NC(=O)CC1CCN(CCOc2ccc(Cc3ccccc3)cc2)C1 (stereo not drawn) [Example 426]  40%
4. COC(=O)C1(O)CCN(CCOc2ccc(Cc3ccccc3)cc2)CC1 [Example 305]  42%
5. C[C@@H]1C[C@H](C(N)=O)CCN1CCOc1ccc(Cc2ccccc2)cc1 (relative stereo) [Example 297]  63%
6. CCOC(=O)CCN(C)CCCOc1ccc(Cc2ccccc2)cc1 [Example 412]  72%
7. NC(=O)C1CCCN(CCOc2ccc(Oc3ccccc3)cc2)C1 (stereo not drawn) [Example 253]  73%
8. COC(=O)C1CCN(CCOc2ccc(Cc3ccccc3)cc2)C1 (stereo not drawn) [Example 276]  75%
9. COC(=O)CC1CCN(CCOc2ccc(Cc3ccccc3)cc2)C1 (stereo not drawn) [Example 275]  75%
10. c1ccc(Oc2ccc(OCCn3cccc4ncnc3-4)cc2)cc1 [348 C]  77%
11. c1ccc(Oc2ccc(OCCn3cnc4ccncc43)cc2)cc1 [349 A]  78.5%
12. CCOC(=O)C1CCN(CCOc2ccc(Oc3ccccc3)cc2)CC1 [Example 254]  87%
13. NC(=O)C1CCN(CCOc2ccc(Oc3ccccc3)cc2)CC1 [Example 252]  94%
14. NC(=O)C1CCN(CCOc2ccc(Cc3ccccc3)s2)CC1 [Example 369]  100%

same assay, conditions: mouse, oral gavage, 1 hour after administration of 50 mg/kg (*); read-out: Murine Ex Vivo LTB4 Inhibition % I LTB4

With `Fc1cccc(COc2ccc(OCCN3CCCC3)cc2)c1` [Example 211] the inhibition in vivo at 50 mg/kg was 47%.
